Measurements: a compilation of properties of binary mixtures (doi:10.1016/j.molliq.2013.10.014)

Assay: xn = mol fraction of the nth substance listed
Settings: 100 kPa

c1ccsc1 + CCCC[n+]1ccn(C)c1.O=S(=O)([N-]S(=O)(=O)C(F)(F)F)C(F)(F)F
viscosity [mPa·s]
Settings	x1 = 0.089	x1 = 0.276	x1 = 0.336	x1 = 0.561	x1 = 0.77	x1 = 1
298.15 K	42.6	26.6	23.2	–	6.86	–
308.15 K	–	–	16.58	10.95	5.35	0.585
318.15 K	20.8	13.9	12.37	8.45	4.29	0.525
328.15 K	15.53	10.66	9.54	6.72	3.52	0.47

c1ccccc1 + CCCC[n+]1ccn(C)c1.O=S(=O)([O-])C(F)(F)F
x1 = 1
Settings	viscosity [mPa·s]
298.15 K	0.605
328.15 K	0.363

c1ccccc1 + CC[n+]1ccn(C)c1.O=S(=O)([N-]S(=O)(=O)C(F)(F)F)C(F)(F)F
x1 = 1
Settings	viscosity [mPa·s]
298.15 K	0.605
308.15 K	0.527
318.15 K	0.466
328.15 K	0.363

CCCC[n+]1ccn(C)c1.O=S(=O)([O-])C(F)(F)F + c1ccccc1
viscosity [mPa·s]
Settings	x2 = 0	x2 = 0.122	x2 = 0.304	x2 = 0.353	x2 = 0.467	x2 = 0.573
298.15 K	–	–	37.2	32.8	19.8	–
308.15 K	56.4	–	–	22.6	14.22	9.37
318.15 K	38.3	29.2	18.23	16.33	–	–
328.15 K	27.3	21.2	–	12.3	–	5.71

CC[n+]1ccn(C)c1.O=S(=O)([N-]S(=O)(=O)C(F)(F)F)C(F)(F)F + c1ccccc1
viscosity [mPa·s]
Settings	x2 = 0	x2 = 0.135	x2 = 0.339	x2 = 0.471	x2 = 0.492
298.15 K	33	–	–	11.41	10.4
308.15 K	23.7	18.44	11.75	8.65	7.98
318.15 K	17.69	14.02	9.11	–	6.31
328.15 K	–	10.93	–	5.5	5.16

CCCC[n+]1ccn(C)c1.O=S(=O)([N-]S(=O)(=O)C(F)(F)F)C(F)(F)F + c1ccsc1
x2 = 0
Settings	viscosity [mPa·s]
298.15 K	51.32
308.15 K	34.4
318.15 K	24.4
